Consider eleven compounds from patent US7763656B2, “Use of Acetylamino benzoic acid compounds for nonsense suppression and the treatment of disease” (PTC Therapeutics, Inc., priority 2002, dated 2010).

The subject of data set [1] is dystrophin in mouse primary skeletal muscle cultures derived from mdx mice. The data set is described as follows: dystrophin immunostaining in primary skeletal muscle cultures from mdx mice. The note with it: 20 μM, cells cultured for 10 days. Type of data set: cell-based. As to the method: Mouse primary skeletal muscle cultures derived from 1-day old mdx mice were prepared as described previously (Barton-Davis et al., 1999, J Clin Invest. 104(4):375-381). Cells were cultured for 10 days in the presence of 3-[2-(4-Isopropyl-3-methyl-phenoxy)-acetylamino]-benzoic acid, sodium salt (20 μM). Culture medium was replaced every four days and the presence of dystrophin in myoblast cultures was detected by immunostaining as described previously (Barton-Davis et al., 1999, J Clin Invest. 104(4):375-381). A primary monoclonal antibody to the C-terminus of the dystrophin protein (F19A12) was used undiluted and rhodamine conjugated anti-mouse IgG was used as the secondary antibody. The F19A12 antibody will detect the full-length protein produced by suppression of the nonsense codon. Staining was viewed using a Leica DMR micropscope, digital camera, and associated imaging software at the University of Pennsylvania.

Data set [2] deals with 28S rRNA. Description: chemical foot-printing of ribosomes prepared from HeLa cells (DMS, kethoxal). It is filed as binding. The note with it: 100 μM, DMS and kethoxal. The procedure: Ribosomes prepared from HeLa cells were incubated with the small molecules (at a concentration of 100 μM), followed by treatment with chemical modifying agents (dimethyl sulfate [DMS] and kethoxal [KE]). Following chemical modification, rRNA was phenol-chloroform extracted, ethanol precipitated, analyzed in primer extension reactions using end-labeled oligonucleotides hybridizing to different regions of the three rRNAs and resolved on 6% polyacrylamide gels. The probes used for primer extension cover the entire 18S (7 oligonucleotide primers), 28S (24 oligonucleotide primers), and 5S (one primer) rRNAs. Controls in these experiments include DMSO (a control for changes in rRNA accessibility induced by DMSO), paromomycin (a marker for 18S rRNA binding), and anisomycin (a marker for 28S rRNA binding).

Data set [3] concerns CFTR in a bronchial epithelial cell line harboring a nonsense codon at amino acid 1282 (W1282X). The data set is described as follows: CFTR function as cAMP-activated chloride channel, SPQ assay. Type of data set: cell-based. To be noted: compound, cAMP stimulation. As to the method: To address the effects of the nonsense-suppressing compounds on mRNAs altered in specific inherited diseases, a bronchial epithelial cell line harboring a nonsense codon at amino acid 1282 (W1282X) was treated with 3-[2-(4-Isopropyl-3-methyl-phenoxy)-acetylamino]-benzoic acid, sodium salt (20RM) and CFTR function was monitored as a cAMP-activated chloride channel using the SPQ assay (Yang et al., 1993, Hum Mol Genet. 2(8):1253-1261 and Howard et al., 1996, Nat Med. 2(4):467-469). […] No increase in fluorescence was observed when cells were not treated with compound or if the cells were not stimulated with cAMP.

The test system of data set [4] is luciferase reporter construct containing a UGA premature termination codon stably transfected in 293T Human Embryonic Kidney cells. Description: cell-based luciferase reporter assay (UGA premature termination codon). To be noted: for Activity: ranking combining potency (minimum concentration to produce protein) and efficacy (maximum protein produced), 293T cells, UGA luciferase reporter, gentamicin internal standard. As to the method: Melting points in Table 1 were obtained on an Electrothermal MeltTemp apparatus and are uncorrected. Activity measurements in Table 1 were performed in a cell-based luciferase reporter assay (as described in Section 4.2) comprising a luciferase reporter construct containing a UGA premature termination codon that was stably transfected in 293T Human Embryonic Kidney cells. Gentamicin, a small molecule known to allow readthrough of premature termination codons, was used as an internal standard. Activity measurements are based on the qualitative relation between the minimum concentration of compound required to produce a given protein in a cell (potency) and the maximum amount of protein produced by the cell (efficacy). Potency and efficacy activities are ranked as either extremely high, very high or significant. The combination of these activities is used to determine the activity ranking.
(§1) Two assays were developed for use in high throughput screens to identify small molecules that promote nonsense suppression. Each assay utilized luciferase because it is a functional reporter gene assay (light is only produced if the protein is functional) and it is extremely sensitive (Light intensity is proportional to luciferase concentration in the nM range). The first assay is a cell-based luciferase reporter assay and the second is a biochemical assay consisting of rabbit reticulocyte lysate and a nonsense-containing luciferase reporter mRNA. In the cell-based assay, a luciferase reporter construct containing a UGA premature termination codon was stably transfected in 293T Human Embryonic Kidney cells. In the biochemical assay, mRNA containing a UGA premature termination codon was used as a reporter in an in vitro translation reaction using rabbit reticulocyte lysate supplemented with tRNA, hemin, creatine kinase, amino acids, KOAc, Mg(OAc)2, and creatine phosphate. […] Synthetic mRNA was prepared in vitro using the T7 promoter and the MegaScript in vitro transcription kit (Ambion).
To determine whether compounds also function in vivo, a stable cell line harboring the UGA nonsense-containing luciferase gene was treated with selected compounds. Cells were grown in standard medium supplemented with 1% penicillin-streptomycin (P/S) and 10% fetal bovine serum (FBS) to 70% confluency and split 1:1 the day before treatment. On the following day, cells were trypsinized and 40,000 cells were added to each well of a 96-well tissue culture dish. Serial dilutions of each compound were prepared to generate a six-point dose response curve spanning 2 logs (30 μM to 0.3 μM). The final concentration of the DMSO solvent remained constant at 1% in each well. Cells treated with 1% DMSO served as the background standard, and cells treated with gentamicin served as a positive control.
On the technique in general: A reporter such as luciferase makes a cellular process visible.

Data set [5] relates to nonsense-containing luciferase reporter mRNA (UGA premature termination codon) in rabbit reticulocyte lysate. Description: biochemical luciferase nonsense suppression assay (in vitro translation). To be noted: internal standard.
Excerpt: as §1

The subject of data set [6] is tripeptidyl-peptidase 1 (TPP-I) in patient-derived LINCL cell line. The note with it: patient-derived cell line compound heterozygous for Arg208Stop and another nonsense mutation; maximal; cited from earlier work.
Data set [7] relates to dystrophin premature stop codon in mdx mice. The note with it: cited from earlier work.

One may read the melting point as the temperature, or range, at which the solid turns liquid. As to `Cc1cc(OCC(=O)Nc2cccc(C(=O)[O-])c2)ccc1C(C)C.[Na+]` [Compound 46, 3-[2-(4-Isopropyl-3-methyl-phenoxy)-acetylamino]-benzoic acid, Sodium salt], the melting point was 188 to 189 °C. In addition, the “full-length dystrophin expression (immunostaining)” value in data set [1] was “EXPRESS FULL-LENGTH […]”. Further, in data set [2], the “accessibility of chemical modifying agents to rRNA nucleotides (foot-printing)” value is recorded as “alters the accessibility of the chemical modifying agents to specific nucleotides in the 28S rRNA”. In addition, the “CFTR function (SPQ fluorescence, chloride channel activity)” value in data set [3] was “increase chloride channel activity”.

The compound `O=C(COc1ccc([N+](=O)[O-])cn1)Nc1cccc(C(=O)O)c1` [Compound 71, 3-[2-(5-Nitro-pyridin-2-yloxy)-acetylamino]-benzoic acid] showed a melting point of 233 to 236 °C. Besides, in data set [4], the Activity was 0.

Turning to `O=C(COc1ccc(COCCCCN2C(=O)c3ccccc3C2=O)cc1)Nc1cccc(C(=O)O)c1` [Compound 73, 3-(2-{4-[4-(1,3-Dioxo-1,3-dihydro-isoindol-2-yl)-butoxymethyl]-phenoxy}-acetylamino)-benzoic acid], the melting point fell in the range of 95 to 100 °C. The Activity in data set [4] turned out to be 0.

In turn, `Cc1cc(C)nc(SCc2ccc(OCC(=O)Nc3cccc(C(=O)O)c3)cc2)n1` [Compound 74, 3-{2-[4-(4,6-Dimethyl-pyrimidin-2-ylsulfanylmethyl)-phenoxy]-acetylamino}-benzoic acid] displayed a melting point of 194 to 196 °C. The Activity in data set [4] is 0.

For the compound `N#CCc1ccc(OCC(=O)Nc2cccc(C(=O)O)c2)cc1` [Compound 77, 3-[2-(4-Cyanomethyl-phenoxy)-acetylamino]-benzoic acid], the melting point is 245 to 247 °C. Further, the Activity in data set [4] is recorded as 0.

In the case of `O=C(COc1ccc(Cc2nnc(-c3ccccc3)o2)cc1)Nc1cccc(C(=O)O)c1` [Compound 80, 3-{2-[4-(5-Phenyl-[1,3,4]oxadiazol-2-ylmethyl)-phenoxy]-acetylamino}-benzoic acid], the melting point fell in the range of 207 to 210 °C. The Activity in data set [4] worked out at 0.

Regarding `O=C(O)c1cccc(N2CCC(Oc3ccc([N+](=O)[O-])cc3)C2=O)c1` (stereo not drawn) [Compound 81, 3-[3-(4-Nitro-phenoxy)-2-oxo-pyrrolidin-1-yl]-benzoic acid], the melting point was in the range of 178 to 180 °C. The Activity in data set [4] turned out to be 0.

`COc1ccc(OC2CCN(c3cccc(C(=O)O)c3)C2=O)cc1` (stereo not drawn) [Compound 82, 3-[3-(4-Methoxy-phenoxy)-2-oxo-pyrrolidin-1-yl]-benzoic acid]: the melting point fell in the range of 198 to 201 °C. Besides, in data set [4], the Activity was 0.

With `CC(C)(C)c1ccc(OC2CCN(c3cccc(C(=O)O)c3)C2=O)cc1` (stereo not drawn) [Compound 88, 3-[3-(4-tert-Butyl-phenoxy)-2-oxo-pyrrolidin-1-yl]-benzoic acid], the melting point fell in the range of 238 to 241 °C. Besides, the Activity in data set [4] is given as 0.

As for gentamicin, the luciferase activity result is listed as “increased luciferase activity” in data set [5] and “increased luciferase activity” in data set [4] (cell-based assay, internal standard). In data set [6], the TPP-I restored result was “approximately 7 % of normal levels of TPP-I”.

On to gentamicin sulfate, for which the “suppression of translational termination at premature stop codon (dystrophin)” value in data set [7] is on record as “full length dystrophin”.
